Data on eight compounds can be found in ChEMBL document CHEMBL6087455 (Eur J Med Chem, 2025).

Active and inactive are the calls of the source. The rule behind the calls is not given here.

What is called IC50 is the concentration that gives 50% inhibition.

Data set [1] deals with T1, Acetylcholinesterase (Rattus norvegicus, UniProt P37136).
T1 sequence (P37136 whole entry): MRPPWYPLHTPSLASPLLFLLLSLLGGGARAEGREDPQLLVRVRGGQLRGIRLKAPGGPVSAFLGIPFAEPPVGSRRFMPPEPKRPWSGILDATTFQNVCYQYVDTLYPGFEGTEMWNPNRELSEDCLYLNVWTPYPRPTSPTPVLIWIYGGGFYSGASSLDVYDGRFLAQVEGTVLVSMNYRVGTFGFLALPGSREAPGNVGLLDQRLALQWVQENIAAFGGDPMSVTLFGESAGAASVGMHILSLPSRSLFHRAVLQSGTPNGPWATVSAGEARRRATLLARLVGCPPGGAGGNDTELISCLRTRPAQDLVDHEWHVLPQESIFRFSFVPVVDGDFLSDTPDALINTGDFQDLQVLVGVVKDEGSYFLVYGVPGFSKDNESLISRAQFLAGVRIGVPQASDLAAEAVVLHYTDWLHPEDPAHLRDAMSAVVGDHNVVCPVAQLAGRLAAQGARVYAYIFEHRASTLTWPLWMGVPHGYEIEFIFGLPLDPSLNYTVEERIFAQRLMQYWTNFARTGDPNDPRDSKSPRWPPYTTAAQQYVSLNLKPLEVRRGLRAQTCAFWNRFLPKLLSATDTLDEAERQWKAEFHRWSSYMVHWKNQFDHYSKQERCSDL
In words: Inhibition of wistar rat brain AChE using acetylthiocholine iodide as substrate preincubated for 10 mins followed by substrate addition and measured after 5 mins by DTNB reagent based spectrophotometric Ellman's method. (In general: In Ellman's method for cholinesterases, released thiocholine reacts with DTNB.)

In data set [2] the test system is BV-2. As to the kind of experiment: Neuroprotective activity against LPS-induced neuronal damage in mouse BV-2 cells assessed as increase in cell viability at 1 uM preincubated with compound for 1 hrs followed by LPS addition and measured after 24 hrs by Muse cell analyzer. The class given is functional, cell-based. As to conditions: time 25.0 hrs.
Data set [3] concerns BV-2. As to the kind of experiment: Antioxidant activity in LPS-induced mouse BV-2 cells assessed as reduction in ROS production at 1 uM preincubated with compound for 1 hrs followed by LPS addition and measured after 24 hrs by Muse cell analyzer relative to control. The format is functional.
Data set [4] concerns BV-2. In words: Neuroprotective activity against LPS-induced neuronal damage in mouse BV-2 cells assessed as cell viability at 1 uM preincubated with compound for 1 hrs followed by LPS addition and measured after 24 hrs by Muse cell analyzer (reference value: 79.2 +/- 1.1 %). The class given is functional. As to conditions: time 25 hrs, read-out: Activity.
The test system of data set [5] is A549. In words: Induction of autophagy in human A549 cells transfected with LC3-GFP plasmid assessed as increase in number of LC3 puncta at >3 uM measured after 24 hrs by high-content confocal microscopic analysis. The class given is functional, cell-based.
In data set [6] the test system is A549. In words: Induction of autophagy in human A549 cells assessed as decrease in p62 level at >3 uM measured after 24 hrs by Western blotting analysis relative to control. The format is functional. Also on record: scale not given: the % may be the effect or the level left.
The subject of data set [7] is A549. As to the kind of experiment: Cytotoxicity against human A549 cells transfected with LC3-GFP plasmid assessed as decrease in cell number upto 10 uM. The format is toxicity, cell-based. As to conditions: a549, 10 µM.
Data set [8] concerns Neuronal like cell. In words: Antioxidant activity in human neuronal like cells assessed as reduction in LPS/TNF-alpha-induced ROS production at 10 uM preincubated with compound for 24 hrs followed by compound washout and measured after 16 hrs of LPS/TNF-alpha addition by H2DCF-DA based fluorescence analysis. The class given is functional.
The test system of data set [9] is A549. As to the kind of experiment: Induction of autophagy in human A549 cells assessed as increase in LC3-II level at >3 uM measured after 24 hrs by Western blotting analysis. The class given is functional, cell-based.
Data set [10] in a line: Induction of H2S release in PBS at pH 7.4 assessed as H2S concentration at 1 mM measured after 30 mins in presence of L-cysteine by Apollo-4000 free radical analyzer. The class given is functional.
Data set [11] is described as follows: Neuroprotective activity against LPS/TNF-alpha-induced damage in human neuronal like cells assessed as restoration of cell function at 10 uM preincubated with compounds for 72 hrs followed by compound washout and measured after 16 hrs of LPS/TNF-alpha addition by MTS assay relative to control. The class given is functional. (Tetrazolium assays rely on reduction of a dye to a coloured formazan, in cell work by metabolically active cells.)

The subject of data set [12] is Neuronal like cell. As to the kind of experiment: Neuroprotective activity against LPS/TNF-alpha-induced damage in human neuronal like cells assessed as increase in cell proliferation at 10 uM preincubated with compounds for 24 hrs followed by compound washout and measured after 16 hrs of LPS/TNF-alpha addition by MTS assay. The class given is functional, cell-based.

For data set [13], the system named is Caenorhabditis elegans. In words: Anti-alzheimer activity in amyloid-beta aggregation induced Caenorhabditis elegans GMC101 assessed as increase in worm fitness at 10 uM administered from day 4 of adulthood and measured on day 7 relative to control. The format is functional. As to conditions: time 4 day.
Data set [14] has as its target Amyloid-beta precursor protein (Homo sapiens) (UniProt P05067). In words: Inhibition of amyloid beta (1 to 42) (unknown origin) self aggregation at 10 uM preincubated with compound for 24 hrs followed by compound washout and measured after 24 hrs by ThT fluorescence based spectrophotometric analysis.
Data set [15] deals with Caenorhabditis elegans. As to the kind of experiment: Anti-alzheimer activity in amyloid-beta aggregation induced Caenorhabditis elegans GMC101 assessed as improvement in displacement per bend of worm at 10 uM administered from day 4 of adulthood and measured on day 7. The format is functional, organism-based. The conditions noted are these: time 4.0 day.
Data set [16] concerns Caenorhabditis elegans. In words: Anti-alzheimer activity in amyloid-beta aggregation induced Caenorhabditis elegans GMC101 assessed as increase in worm motility at 10 uM administered from day 4 of adulthood and measured on day 5 to 7. As to conditions: time 4.0 day. The format is functional, organism-based.
Data set [17] deals with Caenorhabditis elegans. As to the kind of experiment: Anti-alzheimer activity in amyloid-beta aggregation induced Caenorhabditis elegans GMC101 assessed as improvement in speed of worm movement at 10 uM administered from day 4 of adulthood and measured on day 7. The format is functional, organism-based. The conditions noted are these: time 4.0 day.

Chain of Amyloid-beta precursor protein (Homo sapiens) (P05067 whole entry): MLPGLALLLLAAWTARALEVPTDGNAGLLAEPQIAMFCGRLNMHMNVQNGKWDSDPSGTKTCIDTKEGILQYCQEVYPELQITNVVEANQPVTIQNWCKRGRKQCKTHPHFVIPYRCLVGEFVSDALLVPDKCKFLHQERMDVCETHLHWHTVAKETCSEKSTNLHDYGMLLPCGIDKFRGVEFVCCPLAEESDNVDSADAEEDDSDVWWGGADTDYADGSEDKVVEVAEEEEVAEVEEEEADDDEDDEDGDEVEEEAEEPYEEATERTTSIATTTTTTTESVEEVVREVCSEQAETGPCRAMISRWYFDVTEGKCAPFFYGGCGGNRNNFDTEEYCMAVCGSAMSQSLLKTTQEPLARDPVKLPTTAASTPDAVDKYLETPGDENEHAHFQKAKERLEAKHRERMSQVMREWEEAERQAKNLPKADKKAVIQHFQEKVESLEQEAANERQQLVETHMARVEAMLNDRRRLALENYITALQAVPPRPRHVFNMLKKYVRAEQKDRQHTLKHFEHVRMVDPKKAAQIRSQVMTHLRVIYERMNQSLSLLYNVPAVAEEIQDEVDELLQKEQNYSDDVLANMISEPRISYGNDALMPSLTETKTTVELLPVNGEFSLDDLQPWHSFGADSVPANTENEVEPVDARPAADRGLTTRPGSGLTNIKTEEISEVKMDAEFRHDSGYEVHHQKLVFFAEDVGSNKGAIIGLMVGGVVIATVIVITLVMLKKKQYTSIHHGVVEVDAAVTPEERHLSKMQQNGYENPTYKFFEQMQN

In turn, `CCN(C)C(=O)Oc1cccc(NC(=O)COc2ccc(-c3cc(=S)ss3)cc2)c1` registered a half-inhibitory concentration (IC50) in data set [1] of 410 nM. For the same compound, the result in data set [2] and in data set [3] (time 25.0 hrs) was inactive.

Regarding `CCN(C)C(=O)Oc1cccc(N=C=S)c1`, in data set [4], the viability at 1 µM stood at 85.5%. Further, the concentration for half-maximal inhibition (IC50) in data set [1] came out at 870 nM. For the same compound, the Activity in data set [3] (time 25 hrs) was found to be 10%.

`CCN(C)C(=O)Oc1cccc(CCN=C=S)c1` registered a half-inhibitory concentration (IC50) in [1] of 1370 nM. Besides, in data set [2], the outcome was inactive. Moreover, the Activity in data set [3] (time 25 hrs) amounted to 10%.

Consider `CCN(C)C(=O)Oc1cccc(C(N)=S)c1`, for which the result in data set [5], in data set [8], in [9], in data set [12], in data set [15] and in data set [16] was Active. For the same compound, the Activity was around 50% in data set [6]; “Non-toxic” in data set [7]; 10 µM in data set [10]; 100% in [11]; 10.5% in data set [13]; 23% in [3] (time 25 hrs). The Activity entry in [17] is reported as “Active; Slight Effect Observed”. For the same compound, in [4], the viability at 1 µM turned out to be 85.7%. The same compound came in with a concentration for half-maximal inhibition (IC50) in data set [1] of 440 nM. Besides, the inhibition result in data set [14] was “Active; Comparable Activity With Nahs Observed”.

Regarding `CCN(C)C(=O)Oc1cccc(NC(=O)c2ccc(N=C=S)cc2)c1`, the half-inhibitory concentration (IC50) in data set [1] turned out to be 510 nM. Also, in data set [2], the outcome was inactive. The Activity in data set [3] (time 25 hrs) was 10%.

Turning to `CCN(C)C(=O)Oc1cccc([C@H](C)N(C)C)c1` [RIVASTIGMINE], the viability at 1 µM in data set [4] came out at 84.1%. In addition, the Activity in data set [3] (time 25 hrs) is around 10%.

`[Na+].[SH-]` [SODIUM HYDROSULFIDE]: the viability at 1 µM in data set [4] amounted to 87.2%. Besides, the Activity in [3] (time 25 hrs) is 27%.

As for `CCN(C)C(=O)Oc1cccc(CN=C=S)c1`, the viability at 1 µM in [4] is 85.3%. For the same compound, in data set [1], the IC50 worked out at 2190 nM. Besides, the Activity in data set [3] (time 25 hrs) was 10%.
